From patent EP1743642A1 (priority 2005, dated 2007)

Tests used:
[1] = In-vivo testing for regulation of triglycerides in blood, diet-induced obese mice (study VI); conditions: high fat diet, 30 mg/kg/day p.o., day 28 after beginning of the treatment; p<0.005 vs. vehicle
Description: In a second set of experiments carried out similar to the tests shown above the TG (triglyceride) levels of diet-induced obese mice in blood were determined. Mice receiving a high fat diet were - after a feeding period of […] - either treated p.o. with vehicle (0,5 % HPMC) or with the compound according to example 0 (30 mg/kg/day p.o.). TG levels in blood were determined on day 28 after beginning of the treatment.

[2] = In-vivo testing for regulation of triglycerides in blood, obese mice on high fat diet (study V); design: species or system male mice B6 Lep ob/ob; conditions: 30 mg/kg/day po, 14 days
From the text: The study was done using six weeks old male mice B6 Lep ob/ob, obtained from Charles River (France). Mice were divided in 3 groups : I (control), II (vehicle), III (example 0).
The animals of the group I received the standard diet (D-12450B, Research Diets, NJ, USA).
The animals of the groups II and III were fed with a High Fat Diet (D-12492, Research Diets, NJ, USA), in both cases for 7 weeks (References 1 and 2).
The animals of the groups III were fed with a High Fat Diet (D-12492, Research Diets, NJ, USA), in both cases for 7 weeks (References 1 and 2).
At the end of the feeding period of 7 weeks, it was started the treatment period (14 days): Group II mice received the vehicle (10 ml/kg/day, po, of the aqueous solution of acacia gum, 5% W/V). Group III was administered with 30 mg/kg/day, po, of the inventive compound 5-(4-chlorophenyl)-1-(2,4-dichlorophenyl)-4,5-dihydro-pyrazole-3-carboxylic acid according to Example 0. Group I didn't received any treatment. The three groups of mice had the same diet than in the previous period.
At the end of the 14 days period of treatment, the blood levels of triglicerides of the animals were determined. […]

cannabinoid receptors [3] = experiment: Mouse tetrad model, antagonistic effect against Win 55212-2; format: in vivo, Male NMRI mice; conditions: 5 mg/kg i.v. prior to Win 55212-2 in a dose of 1,25mg/kg i.v.
From the text: (§1) Substances with affinity for cannabinoid receptors are known to produce a wide range of pharmacological effects. It is also known that intravenous administration of a substance with affinity for cannabinoid receptors in mice produces analgesia , hypothermia, sedation and catalepsy. Individually, none of these effects can be considered as proof that a tested substance has affinity for cannabinoid-receptors, since all of these effects are common for various classes of centrally active agents. However, substances, which show all of these effects, i.e. substances that are active in this so-called tetrad model are considered to have affinity for the cannabinoid receptors. It has further been shown that cannabinoid receptor antagonists are higly effective in blocking the effects of a cannabinoid agonist in the mouse tetrad model.
(§2) The tetrad model is described, for example, in the publication of A. C. Howlett et al, International Union of Pharmacology XXVII. Classification of Cannabinoid Receptors, Pharmacol Rev 54, 161-202 , 2002 and David R. Compton et al., "In-vivo Characterization of a Specific Cannabinoid Receptor Antagonist (SR141716A) :Inhibition of Tetrahydrocannbinol- induced Responses and Apparent Agonist Activity", J. Pharmacol. Exp. Ther. 277 , 2, 586-594, 1996. The corresponding parts of the description are hereby incorporated by reference.
(§3) Male NMRI mice with a weight of 20-30 g (Harlan, Barcelona, Spain) are used in all of the following experiments.
(§4) Before testing in the behavioral procedures given below, mice are acclimatized to the experimental setting. Pre-Treatment control values are determined for analgesia hot plate latency (in seconds), rectal temperature, sedation and catalepsy.
(§5) In order to determine the agonistic activty of the substance to be tested, the mice are injected intravenously with the substance to be tested or the vehicle alone. 15 minutes after injection, latency in hot plate analgesia is measured.
(§6) Rectal temperature, sedation and catalepsy are measured 20 minutes after injection.
In order to determine the antagonistic activity the identical procedure is used as for the determination of the agonistic effects, but with the difference that the substance to be evaluated for its antagonistic activity is injectected 5 minutes before the intravenous injection of 1.25 mg/kg Win-55,212 a known cannabinoid-receptor agonist.
(§7) The hot plate analgesia is determined according to the method described in Woolfe D. et al. "The evaluation of analgesic action of pethidine hydrochloride (Demerol)", J. Pharmacol. Exp. Ther. 80, 300-307,1944. The respective description is hereby incorporated by reference and forms part of the present disclosure.
(§8) The mice are placed on a hot plate (Harvard Analgesimeter) at 55 ± 0.5 °C until they show a painful sensation by licking their paws or jumping and the time for these sensations to occur is recorded. This reading is considered the basal value (B). The maximum time limit the mice are allowed to remain on the hot plate in absence of any painful response is 40 seconds in order to prevent skin damage. This period is called the cut-off time (PC).
(§9) Fifteen minuts after the administration of the substance to be tested, the mice are again placed on the hot plate and the afore described procedure is repeated. This period is called the post-treatment reading (PT).
(§10) The degree of analgesia is calculated from the formula : %MPEof Analgesia = (PT−B)/(PC−B) × 100 [formula] MPE = Maximum possible effect.
(§11) Sedation and ataxia is determined according to the method described in Desmet L. K. C. et al. "Anticonvulsive properties of Cinarizine and Flunarizine in Rats and Mice", Arzneim. -Forsch. (Frug Res) 25, 9, 1975. The respective description is hereby incorporated by reference and forms part of the present disclosure.
The chosen scoring system is • 0: no ataxia; • 1: doubful; • 2: obvious calmness and quiet; • 3 pronounced ataxia; • prior to as well as after treatment. […]

[4] = molecular target: T1, transfected human CB1 receptors (Homo sapiens, UniProt P21554); experiment: In-vitro determination of affinity to CB1 receptor (radioligand [3H]-CP55940); format: binding
T1 construct: purchased Receptor Biology, Inc
T1 sequence (P21554 whole entry): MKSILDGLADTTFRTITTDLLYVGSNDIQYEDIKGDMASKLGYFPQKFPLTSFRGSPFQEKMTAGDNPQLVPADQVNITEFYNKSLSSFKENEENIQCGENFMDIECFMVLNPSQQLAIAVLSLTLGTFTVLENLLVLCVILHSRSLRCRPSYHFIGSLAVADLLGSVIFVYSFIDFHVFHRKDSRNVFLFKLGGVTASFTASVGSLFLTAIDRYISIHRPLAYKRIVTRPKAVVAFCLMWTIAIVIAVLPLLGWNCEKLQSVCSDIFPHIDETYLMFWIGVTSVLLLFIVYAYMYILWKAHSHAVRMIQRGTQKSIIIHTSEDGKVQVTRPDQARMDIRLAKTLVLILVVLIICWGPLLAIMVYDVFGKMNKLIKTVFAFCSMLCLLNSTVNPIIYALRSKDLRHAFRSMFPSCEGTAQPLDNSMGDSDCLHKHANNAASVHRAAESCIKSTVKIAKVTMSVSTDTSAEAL
Description: (§12) I. In-vitro determination of affinity to CB1/CB2-Receptors
(§13) The in-vitro determination of the affinity of the inventive substituted pyrazoline compounds to CB1/CB2-Rezeptors is carried out as described in the publication of Ruth A. Ross, Heather C. Brockie et al., "Agonist-inverse agonist characterization at CB1 and CB2 cannabinoid receptors of L-759633, L759656 and AM630", British Journal of Pharmacology, 126, 665-672, (1999), whereby the transfected human CB1 and CB2 receptors of Receptor Biology, Inc. are used. The radioligand used for both receptors is [^3H]-CP55940. The respective parts of the description is hereby incorporated by reference and forms part of the present disclosure.

cannabinoid receptors [5] = experiment: Mouse tetrad model, agonistic effect; format: in vivo, Male NMRI mice; design: key to Agonistic effect D: Sedation: % of sedation = mean score (0–3 scale)/3 × 100; conditions: 5 mg/kg i.v.
From the text: as §1, §2, §3, §4, §5, §6, §7, §8, §9, §10, §11
The chosen scoring system is • 0: no ataxia; • 1: doubful; • 2: obvious calmness and quiet; • 3 pronounced ataxia; • prior to as well as after treatment.
The percentage of sedation is determined according to the formula: %of sedation = arithmetic mean/3 × 100 [formula] […]

[6] = molecular target: T2, transfected human CB2 receptors (Homo sapiens, UniProt P34972); experiment: In-vitro determination of affinity to CB2 receptor (radioligand [3H]-CP55940); format: binding
T2 construct: purchased Receptor Biology, Inc
T2 sequence (P34972 whole entry): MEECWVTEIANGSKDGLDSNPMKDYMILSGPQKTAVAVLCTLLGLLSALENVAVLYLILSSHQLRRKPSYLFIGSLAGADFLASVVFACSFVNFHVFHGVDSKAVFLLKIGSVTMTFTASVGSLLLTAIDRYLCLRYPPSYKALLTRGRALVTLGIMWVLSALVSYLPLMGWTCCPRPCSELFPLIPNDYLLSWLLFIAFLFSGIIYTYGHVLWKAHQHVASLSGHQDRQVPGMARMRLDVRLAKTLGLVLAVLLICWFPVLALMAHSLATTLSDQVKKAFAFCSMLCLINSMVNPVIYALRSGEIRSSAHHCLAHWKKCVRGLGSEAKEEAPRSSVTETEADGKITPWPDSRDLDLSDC
Description: as §12, §13

SMILES: O=C(O)C1=NN(c2ccc(Cl)cc2Cl)C(c2ccc(Cl)cc2)C1 (stereo not shown) [Example 0, 5-(4-chlorophenyl)-1-(2,4-dichlorophenyl)-4,5-dihydro-pyrazole-3-carboxylic acid]
- TG (triglyceride) levels [1]: 0.80 ± 0.07 mmol/L
- Triglicerides, whole blood levels (mg/dl) ([2]; N.S. compared with Group I): 67.5 (N.S.) mg/dl
- Relative levels ([2]; triglicerides relative to Group I (standard diet = 100%)): 110.6%

SMILES: O=C(NN1CCCCC1)C1=NN(c2ccc(Cl)cc2Cl)C(c2ccc(Cl)cc2)C1 (stereo not shown) [Example 1, N-piperidinyl-5-(4-chlorophenyl)-1-(2,4-dichlorophenyl)-4,5-dihydro-1H-pyrazole-3-carboxamide]
- Antagonistic Effect A: Hot-Plate test (cannabinoid receptors [3]): 74
- Antagonistic Effect B: Hypothermia (cannabinoid receptors [3]): 100
- Antagonistic Effect C: Catalepsy (cannabinoid receptors [3]): 100
- Antagonistic Effect D: Sedation (cannabinoid receptors [3]): 100
- Ki [4]: < 25 nM
- Agonistic effect A: Hot-Plate test (cannabinoid receptors [5]): 0
- Agonistic effect B: Hypothermia (cannabinoid receptors [5]): 0
- Agonistic effect C: Catalepsy (cannabinoid receptors [5]): 0
- Agonistic effect D: Sedation (cannabinoid receptors [5]): 0
- Ki [6]: > 1000 nM

SMILES: O=C(C1=NN(c2ccc(Cl)cc2Cl)C(c2ccc(Cl)cc2)C1)N1CCCCC1 (stereo not shown) [Example 5, [5-(4-Chloro-phenyl)-1-(2,4-dichloro-phenyl)-4,5-dihydro-1H-pyrazol-3-yl]-piperidin-1-yl-methanone]
- Antagonistic Effect A: Hot-Plate test (cannabinoid receptors [3]): 50
- Antagonistic Effect B: Hypothermia (cannabinoid receptors [3]): 40
- Antagonistic Effect C: Catalepsy (cannabinoid receptors [3]): 20
- Antagonistic Effect D: Sedation (cannabinoid receptors [3]): 20
- Agonistic effect A: Hot-Plate test (cannabinoid receptors [5]): 0
- Agonistic effect B: Hypothermia (cannabinoid receptors [5]): 50
- Agonistic effect C: Catalepsy (cannabinoid receptors [5]): 0
- Agonistic effect D: Sedation (cannabinoid receptors [5]): 0
- Ki [6]: ~1000 nM
